From patent US20030162796A1, “Pharmaceutical composition for the treatment of disorders of non-human mammals” (priority 2001, published 2003)
Like-named read-outs stand apart in the source and are kept apart here.

What was measured:
SH1b cells = assay: 3H-Thymidin proliferation assay, SH1b; assay type: cell-based, canine; conditions: FIG. 3
Experimental: (§1) The ability of BIBX1382 to inhibit the proliferation of cells in culture was tested with a ^3H-Thymidin proliferation assays. This assay was performed with three tumor cell lines (SLU-1, SLU-4, SH1b) and a normal cell line (CRL-6234).
(§2) A pilot experiment with 500 to 12.000 cells per well in a 96-well plate in the presence of different concentrations of FCS (0% to 10%) was performed. After different proliferation times (24 h, 48 h, 72 h and 96 h), 10 μl ^3H-Thymidin (1:100 in PBS) were added, after incubation the plate was frozen, then thawed and the cells were harvested. The ^3H-Thymidin incorporation rate was determined. […] To determine a possible growth inhibitory effect of the inhibitor BIBX1382 on the cell lines, different concentrations (5 nM-10000 nM) of the inhibitor were used. Again ^3H-Thymidin was added, after incubation the plate was frozen, then thawed and the cells were harvested. The ^3H-Thymidin incorporation rate was determined in dependance of the concentration of inhibitor.
The ^3H-Thymidin proliferation assay was also done with the tumor cell line SH1b.

CRL-6234 cells = assay: 3H-Thymidin proliferation assay, CRL-6234 (normal cell line); assay type: cell-based, canine
Experimental: as §1, §2

SLU-1 cells = assay: 3H-Thymidin proliferation assay, SLU-1; assay type: cell-based, canine; conditions: inhibitor 5 nM-10000 nM
Experimental: as §1, §2

SLU-1 tumors = assay: Effect on tumor growth in nude mice (SLU-1 subcutaneous xenograft); assay type: in vivo
Experimental: The cell line SLU-1 was cultured as described in Example 2. For use in tumor experiments, cells were trypsinised, washed and suspended in PBS+5% FCS at 10^7 cells/ml. 2×10^6 SLU-1 cells were injected into 40 nude mice (5-10 week-old female Hsd:NMRI-nu/nu purchased from Harlan, The Netherlands for the in vivo experiment with BIBX1382.
(§3) When tumors were established and had reached diameters of approximately 5 mm as measured with a calliper, mice were randomly distributed into groups of 10 animals so that each tumor size was equally represented in each treatment group. The time span between cell injection and randomisation/start of treatment was sixteen days. Starting ten days after randomisation, mice were treated once daily (at 24 hour intervals) with various doses of the test compound. Administration was intragastral using a gavage needle (Infusionskanule Olive A, Acufirm, No. 14 64 11-1). Therefore, the compound was suspended in 2.5% aqueous HP-beta-CD (hydroxy-propyl-beta-cyclodextrine)/1% aqueous Natrosol (hydroxyethylcellulose). Control mice received the vehicle only. The administration volume was 2.5 to 10 ml per kg mouse body weight. The solutions were proportioned and kept at −20° C.
(§4) The low dose group received 25 mg/kg/day (day 10-22) and 50 mg/kg/day (day 23-46) of BIBX1382; whereas the high dose group received 50 mg/kg/day (day 10-22), 70 mg/kg/day (day 23-30) and 100 mg/kg/day (day 31-46) of BIBX1382. The control group was treated with vehicle only.
Tumors were measured three times a week (Monday, Wednesday and Friday) with a calliper. Volumes [in mm^3] were then calculated according to the formula (tumor volume=length*diameter^2*π/6). To monitor side effects of treatment, mice were inspected daily for abnormalities and weighed three times (Monday, Wednesday and Friday) a week.
Tumor volumes were expressed as mean absolute tumor volumes [in mm^3] and plotted over days of treatment.
The specific relative tumor volumes (T/C [%], i.e. the mean relative tumor volumes of groups of compound-treated tumors in % of the mean relative tumor volume of the vehicle-treated control tumors: T/C [%]=100*mean Vrel compound-treated/mean Vrel vehicle-treated) were determined on the day following the final day of treatment.
Experiments were usually terminated when vehicle control mice had to be killed because of large tumor sizes (1200 to 1700 mm^3).

SLU-4 cells = assay: 3H-Thymidin proliferation assay, SLU-4; assay type: cell-based, canine; conditions: inhibitor 5 nM-10000 nM
Experimental: as §1, §2

[1] = Plasma levels of BIBX1382 of the treated mice; assay type: in vivo, nude mice; conditions: for concentration at 2 h / concentration at 6 h / concentration at 24 h: nude, mouse, plasma, oral, read-out: plasma level, mean; for concentration at 2 h: 2 h after last compound administration on day 46; for concentration at 6 h: 6 h after last compound administration on day 46; for concentration at 24 h: 24 h after last compound administration on day 46
Experimental: as §3, §4
With plasma levels of […] at 2 hours after oral compound administration a reduction of the growth rate to a T/C value of 62% was achieved.

**Q.** For CN1CCC(Nc2ncc3ncnc(Nc4ccc(F)c(Cl)c4)c3n2)CC1 [BIBX1382, 4-((3-chloro-4-fluoro-phenyl)amino)-6-(1-methyl-4-piperidinyl-amino)-pyrimido(5,4d)pyrimidine], which “proliferation (3H-Thymidin incorporation)” value (SH1b cells) is on record?
**A.** inhibited in its proliferation time

**Q.** What about the “effect on normal cell line at high concentrations” value (CRL-6234 cells; high concentrations) of the same compound?
**A.** toxic effects at high concentrations

**Q.** What about the “proliferation at lower concentration” value (CRL-6234 cells; lower concentration) of the same compound?
**A.** not inhibited

**Q.** And the “proliferation rate (3H-Thymidin incorporation)” value (SLU-1 cells)?
**A.** inhibited in their proliferation rate

**Q.** And the SLU-1 tumor growth (SLU-1 tumors; all tested doses, oral once daily, FIGS. 4 and 5)?
**A.** influenced SLU-1 tumor growth at all tested doses

**Q.** What about the “T/C values compared to the vehicle control group (standard T-test)” value (SLU-1 tumors; both dose groups (low and high)) of the same compound?
**A.** significantly lower

**Q.** And the T/C (SLU-1 tumors; high dose group (Group 2), 50 → 70 → 100 mg/kg/day, after 100 mg/kg/day (day 31-46), day 47)?
**A.** 38%

**Q.** What about the T/C (SLU-1 tumors; high dose group after 50 mg/kg/day (day 10-22)) of the same compound?
**A.** 52%

**Q.** And the T/C (SLU-1 tumors; high dose group after 70 mg/kg/day (day 23-30))?
**A.** 53%

**Q.** And the “increase in tumor size at maximum” value (SLU-1 tumors; high dose group, 50 mg/kg/day, day 10-22, all ten tumors)?
**A.** 5-6 fold

**Q.** And the “increase in tumor size” value (SLU-1 tumors; high dose group, 70 mg/kg/day, day 23-30)?
**A.** about 2 fold

**Q.** And the “increase in tumor size” value (SLU-1 tumors; high dose group, 100 mg/kg/day, day 31-46)?
**A.** 1.5-1.9 fold

**Q.** What about the “increase in tumor size on average” value (SLU-1 tumors; high dose group, whole period of treatment) of the same compound?
**A.** 20 fold

**Q.** What about the T/C (SLU-1 tumors; low dose group (Group 1), 25 → 50 mg/kg/day, after 50 mg/kg/day (day 23-46), day 47) of the same compound?
**A.** 62%

**Q.** What about the T/C (SLU-1 tumors; low dose group after 25 mg/kg/day (day 10-22)) of the same compound?
**A.** 78%

**Q.** What about the “increase in tumor size” value (SLU-1 tumors; low dose group, 25 mg/kg/day, day 10-22, 9 of 10 tumors) of the same compound?
**A.** 8 fold

**Q.** What about the tumor volume change (SLU-1 tumors; low dose group, 25 mg/kg/day, day 10-22, one of 10 tumors) of the same compound?
**A.** did not change at all

**Q.** And the “increase in tumor size” value (SLU-1 tumors; low dose group, 50 mg/kg/day, day 23-46, all 10 tumors)?
**A.** 3-6 fold

**Q.** What about the “increase in tumor size on average” value (SLU-1 tumors; low dose group, whole period of treatment (day 10-46)) of the same compound?
**A.** 35 fold

**Q.** What about the “proliferation rate (3H-Thymidin incorporation)” value (SLU-4 cells) of the same compound?
**A.** not affected

**Q.** And the plasma level ([1]; 2 hours after oral compound administration, level giving T/C 38%)?
**A.** approximately 4000 mmol/l

**Q.** And the concentration at 2 h ([1]; 50 mg/kg)?
**A.** 3.17 µM

**Q.** And the concentration at 6 h ([1]; 50 mg/kg)?
**A.** 2.85 µM

**Q.** What about the concentration at 24 h ([1]; 50 mg/kg) of the same compound?
**A.** 0.394 µM

**Q.** And the concentration at 2 h ([1]; 100 mg/kg)?
**A.** 4.16 µM

**Q.** What about the concentration at 6 h ([1]; 100 mg/kg) of the same compound?
**A.** 4.09 µM

**Q.** And the concentration at 24 h ([1]; 100 mg/kg)?
**A.** 0.591 µM
